The subject of assay [1] is sensitive strains of Mycobacterium Tuberculosis bacilli (MTB). The assay can be described thus: Antibacterial efficacy in LJ medium, in vitro culture. Type of assay: cell-based.
The next assay has as its system Staphylococci. The assay is described as follows: Antibacterial activity in broth, culture growth after 24 hrs. Type of assay: cell-based.
For another assay, the system named is AFB. The assay is described as follows: Sputum AFB test (Ziehl-Neelson stain) in pulmonary tuberculosis patients. Type of assay: in vivo, human. As to the method:
Fifty four patients suffering from pulmonary tuberculosis were included in this study. Thirty patients were treated with four anti-tubercular drugs only. Twenty-four patients were treated with four anti-tubercular drugs and antioxidant drugs concomitantly.
Four antitubercular drugs were given by oral route to all 54 patients in doses and frequency as shown below for a period of 60 days. The dosage regime for the anti-microbial drugs is known in the art as “2EHRZ.” It is an oral daily capsule of rifampicin, a tablet of isoniazid, a tablet of Pyrizinamide, and a tablet of ethambutal.
Out of the total test population of fifty-four patients, twenty-four patients received, in addition to the above 2EHRZ regime, Factor Alpha tx for 60 days, administered daily, orally.
In both of the two groups, three sputum samples for each patient were collected and were analyzed for the presence of AFB after 15 days, after 30 days and after sixty days. Analysis was by the Ziehl-Neelson (hot) stain method. The reports were documented as positive for presence of bacilli & negative for absence of bacilli.
The first group (the control group) received Rifampicin, Isoniazid, Ethambutol and Pyrazinamide in daily oral doses mentioned above, on Out Patient Department (OPD) basis for 60 days. […]

In another assay the test system is Pseudomonas. The assay is described as follows: Antibacterial activity in broth, culture growth after 24 hrs. Type of assay: cell-based.
The subject of another assay is Escherichia coli. Described as above. Type of assay: cell-based.

As for `Cc1c(C)c2c(c(C)c1O)CC[C@@](C)(CCC[C@H](C)CCC[C@H](C)CCCC(C)C)O2` [Factor Alpha tx, α-tocopherol], the antibacterial efficacy entry in assay [1] is “effective”. The antibacterial activity result with Staphylococci, in the assay on Pseudomonas and in the assay on Escherichia coli was “has antibacterial activity” in each case. Moreover, in the assay on AFB, the “effect on sputum negativity of concurrent administration with routine anti tubercular agents” value was “synergistic effects in augmenting sputum negativity”.

These data come from patent US20050171116A1, “Enhancing the efficacy of tubercular drugs” (priority 2004, published 2005).
